Data from patent publication US20080268123A1, “Onion Flavoured Compounds and Use” (GIVAUDAN SA, priority 2005, published 2008).
“Also recorded” adds a separate entry of the source.

Assays:
[1] = Sensory effects of compounds of formula I in chicken broth (triangle test, trained panel); conditions: for kokumi intensity (0-5): broth without additives = 2
Protocol: (§1) Unless otherwise indicated, all sensory tests are triangle tests and are performed according to the guidelines in “Amtliche Sammlung von Untersuchungsverfahren nach § 35 LMBG (Lebensmittel-und Bedarfsgegenständegesetz)”; L 00.90 7 , Untersuchung von Lebensmitteln , Sensorische Prüfverfahren, Dreiecksprüfung (Übernahme der gleichnahmigen Deutschen Norm DIN ISO 4120, Ausgabe Januar 1995), as follows:
(§2) The sensory panel is trained to evaluate the taste of aqueous solutions (4 ml each) of the following standard taste compounds by using a triangle test as described in the literature (Wieser and Belitz, Z. Lebensm. Unters. Forsch., 1975, 159, 65-72): sucrose (40 mmol/L) for sweet taste; citric acid (5 mmol/L) for sour taste; NaCl (12 mmol/L) for salty taste; caffeine (2 mmol/L) for bitter taste; and monosodium glutamate (MSG; 6 mmol/L) for umami taste. For kokumi taste, a solution of glutathione (10 mmol/L) in diluted chicken broth concentrate (Gourmet Bouillon Huhn, Maggi, Singen, Germany; 3 g/100 g bottled water (Evian®)) is prepared and compared to the taste of chicken broth with no glutathione added. All sensory analyses are performed in a sensory panel room at 22-25° C. over three different sessions by a trained panel of 8 to 10 individuals.
(§3) For recording the taste profiles, samples are prepared as indicated in the examples below. Taste profiles of samples are determined in a triangle test in three different sessions. Panellists refrain from eating or drinking for at least 1 hour prior to the session. At the start of the session and before each trial, the subject rinsed with water and expectorated. The participants receive a set of two blanks and one taste sample. Liquid samples are swirled around in the mouth briefly and expectorated. Solid samples are chewed for 20 seconds and then expectorated. […] Each sample with additive is compared to two reference samples without additives.
Sensory tests (triangle test) are performed at least three times for each compound using sensory panels of different individuals to confirm results.
Chicken Broth is prepared by dilution of 3 g chicken broth concentrate (Gourmet Bouillon Huhn; Maggi, Singen, Germany) with 100 ml water (Evian). Additives are added as specified in table below.
The pH-value of all samples is adjusted to 6.5 using formic acid (0.1 mol/L) or sodium hydroxide (0.1 mol/L).
Flavour intensity (onion or kokumi) is rated from 0-5 according to a scale from 0 to 5 (with 5 most intensive). GSH (5 mmol/L) is determined to have an kokumi intensity of 3 in all tests.
The additive is added to a consumable and the sample is homogenised. The samples are presented to the sensory panel directly after homogenisation.
For each sample, flavour intensity is rated and panelists are asked to describe sensory characteristics.

[2] = Sensory effects of compounds of formula I in water (triangle test, trained panel); conditions: additive 5 mmol/L
Protocol: as §1, §2, §3

[3] = Onion flavour compounds in tomato soup (sensory panel)
Protocol: as §1, §3
Cys-O—C2H5 and γ-Glu-Cys-O—C2H5 are added to tomato soup (Unox, Unilever Bestfoods, Germany, pH 4,5), in the concentrations indicated below.

[4] = Onion flavour compounds in barbecue sauce (sensory panel); conditions: barbecue sauce pH 3.3, additive 5 mmol/L
Protocol: as §1, §3
Onion flavour compounds as indicated in the table below are added to barbecue sauce (Kraft Foods, Germany), pH 3.3.

[5] = Onion flavour compounds in mushroom cream soup (sensory panel); conditions: mushroom cream soup pH 6.0, additive 1 mmol/L
Protocol: as §1, §3
Cys-O—C2H5and γ-Glu-Cys-O—C2H5are added to mushroom cream soup (Unox, Unilever Bestfoods, Germany), pH 6.0 in a concentration of 1 mmol/L samples are evaluated directly after homogenisation.

[6] = chicken broth pH 6.5, additive 5 mmol/L
[7] = chicken broth pH 6.5, additive 5 mmol/L, scale 0 to 5 (5 most intensive)
[8] = chicken broth pH 6.5, additive 5 mmol/L, scale 0 to 5
[9] = tomato soup pH 4,5, additive 1 mmol/L
[10] = tomato soup pH 4,5, additive 5 mmol/L
[11] = chicken broth pH 6.5, additive 10 mmol/L (positive control)
[12] = chicken broth pH 6.5, additive 30 mmol/L (positive control)

N[C@@H](CS)C(=O)O [Cys-OH, reference compound]
Sensory descriptors [1, 6]: increased sweetness
onion flavour intensity (0-5) [1, 7]: 0
kokumi intensity (0-5) [1, 8]: 2
Onion flavour intensity [2]: 0
Sensory description [2]: sweet

CCOC(=O)[C@@H](N)CS [Cys-O—C2H5]
Test results (sensory description versus reference) [3, 9]: onion like and slightly meaty flavour; also recorded: Preferred, onion like flavour, slightly meaty
Test results (sensory description versus reference) [3, 10]: onion like and slightly meaty flavour
Test results (sensory description versus reference) [4]: Preferred, onion like flavour, meaty
Sensory descriptors [1, 6]: onion flavour
onion flavour intensity (0-5) [1, 7]: 3
kokumi intensity (0-5) [1, 8]: 2
Test results (sensory description versus reference) [5]: Preferred, onion like flavour
panelists indicating an onion like flavour [5]: 7 out of 8
Onion flavour intensity [2]: 3.5
Sensory description [2]: onion flavour

COC(=O)[C@@H](N)CS [Cys-O—CH3]
Sensory descriptors [1, 6]: onion flavour
onion flavour intensity (0-5) [1, 7]: 2
kokumi intensity (0-5) [1, 8]: 2
Onion flavour intensity [2]: 2.5
Sensory description [2]: onion flavour

N[C@@H](CCC(=O)N[C@@H](CS)C(=O)NCC(=O)O)C(=O)O [GSH, reduced form, glutathione, reference compound]
Sensory descriptors [1, 6]: increased kokumi taste
onion flavour intensity (0-5) [1, 7]: 0
kokumi intensity (0-5) [1, 8]: 3

N[C@@H](CCC(=O)O)C(=O)[O-].[Na+] [MSG, mono sodium glutamate, reference compound]
Sensory descriptors [1, 11]: increased umami taste
onion flavour intensity (0-5) [1, 11]: 0
kokumi intensity (0-5) [1, 11]: 2

CSCC[C@H](N)C(=O)O [Met-OH]
Onion flavour intensity [2]: 0
Sensory description [2]: sweet

CCOC(=O)[C@@H](N)CCSC [Met-O—C2H5]
Sensory descriptors [1, 6]: slight onion flavour
onion flavour intensity (0-5) [1, 7]: 1.5
kokumi intensity (0-5) [1, 8]: 2
Onion flavour intensity [2]: 1.5
Sensory description [2]: slight onion flavour

COC(=O)[C@@H](N)CCSC [Met-O—CH3]
Sensory descriptors [1, 6]: slight onion flavour
onion flavour intensity (0-5) [1, 7]: 0.5
kokumi intensity (0-5) [1, 8]: 2
Onion flavour intensity [2]: 1
Sensory description [2]: slight onion flavour

[Cl-].[Na+] [NaCl, reference compound]
Sensory descriptors [1, 12]: increased salt taste
onion flavour intensity (0-5) [1, 12]: 0
kokumi intensity (0-5) [1, 12]: 2

CCOC(=O)[C@@H](N)CO [Ser-O—C2H5]
Onion flavour intensity [2]: 0
Sensory description [2]: slightly sweet

COC(=O)[C@@H](N)CO [Ser-O—CH3]
Onion flavour intensity [2]: 0
Sensory description [2]: slightly sweet

CCOC(=O)CNC(=O)[C@H](CS)NC(=O)CC[C@H](N)C(=O)O [γ-Glu-Cys-Gly-O—C2H5]
Onion flavour intensity [2]: 0
Sensory description [2]: intensely bitter

N[C@@H](CCC(=O)N[C@@H](CS)C(=O)O)C(=O)O [γ-Glu-Cys-OH, reference compound]
Sensory descriptors [1, 6]: increased kokumi taste
onion flavour intensity (0-5) [1, 7]: 0
kokumi intensity (0-5) [1, 8]: 4
Onion flavour intensity [2]: 0
Sensory description [2]: tasteless

CCOC(=O)[C@H](CS)NC(=O)CC[C@H](N)C(=O)O [γ-Glu-Cys-O—C2H5]
Test results (sensory description versus reference) [3, 9]: more roasty; also recorded: Preferred, onion like flavour, meaty, roasty, slightly
Test results (sensory description versus reference) [3, 10]: Preferred, strong onion like flavour, meaty, roasty, more
Panel description in text (difference, preference, kokumi taste) ([3]; tomato soup pH 4,5, samples with 1 mmol/L and 5 mmol/L taken together): kokumi taste
Test results (sensory description versus reference) [4]: more roasty; also recorded: kokumi taste; also recorded: Preferred, strong onion like flavour, meaty,
Sensory descriptors [1, 6]: strong onion flavour, increased
onion flavour intensity (0-5) [1, 7]: 4
kokumi intensity (0-5) [1, 8]: 3.5
Test results (sensory description versus reference) [5]: the observed effect is higher; also recorded: Preferred, strong onion like flavour, meaty,
Onion flavour intensity [2]: 4.5
Sensory description [2]: onion flavour

γ-Glu-Cys(S—C2H5)-Gly-O—C2H5
Onion flavour intensity [2]: 0
Sensory description [2]: intensely bitter
